Assay results taken from publication PMC2932999 (Journal of Medicinal Chemistry, 2010).

Legend:
[1] = biological target: E197 Perth NA (B/Perth/211/2001 D197E mutant neuraminidase) (Influenza B virus, UniProt Q3S340, D197E); type: biochemical, influenza B virus B/Perth/211/2001; settings: read-out: Km for MUNANA
[2] = biological target: N197 Yamagata NA (B/Yamagata/186/05 D197N mutant neuraminidase) (Influenza B virus, UniProt Q38G88, D197N); type: biochemical, influenza B virus B/Yamagata/186/05; settings: read-out: Km for MUNANA
[3] = test system: mutant NAs (B/Perth E197 and B/Yamagata N197); type: biochemical, influenza B virus

## CC(=O)N[C@H]1[C@H]([C@H](O)[C@H](O)CO)OC(Oc2ccc3c(C)cc(=O)oc3c2)(C(=O)O)C[C@@H]1O (stereo partly shown) [MUNANA, 4-methylumbelliferyl-N-acetylneuraminic acid]
[1]
  Km: 12.1 ± 3.7 µM
[2]
  Km: 18.8 ± 4.5 µM

## CCC(CC)[C@H](NC(C)=O)[C@@H]1[C@H](O)[C@@H](C(=O)O)C[C@H]1NC(=N)N [compound 3, peramivir]
[3]
  slow binding of inhibitor: loss of slow binding

## O=C(O)C1(F)O[C@H]([C@H](O)[C@H](O)CO)[C@H](O)[C@@H](O)C1F (stereo partly drawn) [compound 4, 2,3-difluoro-2-keto-3-deoxy-D-glycero-D-galactononulosonic acid]
[3]
  resistance of mutant NAs compared to D197 wild type NA: no resistance
